Reference: the supplement of paper PMC10307832

Key:
Test in all cases: relative viability (nuclei count vs DMSO), 5 days (fraction); higher = more cells survive
Wnt-C59 + Foretinib = compound: CC1=NC=CC(=C1)C2=CC=C(C=C2)CC(=O)NC3=CC=C(C=C3)C4=CN=CC=C4 [Wnt-C59] + COc1cc2c(Oc3ccc(NC(=O)C4(C(=O)Nc5ccc(F)cc5)CC4)cc3F)ccnc2cc1OCCCN1CCOCC1 [Foretinib] (partner 0.25 µM)
Procedure, shortened: (§1)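 Lung cancer cell lines in 1536-well plates were dosed by pin tool the day after seeding, either with one drug alone or with a fixed anchor-drug dose plus five library-drug doses (not always all listed) in √10 steps. After 5 days, cells were fixed and their nuclei stained in one step (final 0.05% Triton X-100, 1% formaldehyde, 1 ug/ml Hoechst), then counted on 4× images. Relative viability is the nuclei count in treated wells divided by that in vehicle wells. Values are medians of duplicate plates.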

Wnt-C59 + Alpelisib = compound: CC1=NC=CC(=C1)C2=CC=C(C=C2)CC(=O)NC3=CC=C(C=C3)C4=CN=CC=C4 [Wnt-C59] + Cc1nc(NC(=O)N2CCC[C@H]2C(N)=O)sc1-c1ccnc(C(C)(C)C(F)(F)F)c1 [Alpelisib] (partner 2 µM)
Procedure, shortened: as §1

Wnt-C59 + Decitabine = compound: CC1=NC=CC(=C1)C2=CC=C(C=C2)CC(=O)NC3=CC=C(C=C3)C4=CN=CC=C4 [Wnt-C59] + Nc1ncn([C@H]2C[C@H](O)[C@@H](CO)O2)c(=O)n1 [Decitabine] (partner 2 µM)
Procedure, shortened: as §1

Lapatinib + Pemetrexed = compound: CS(=O)(=O)CCNCc1ccc(-c2ccc3ncnc(Nc4ccc(OCc5cccc(F)c5)c(Cl)c4)c3c2)o1 [Lapatinib] + Nc1nc2[nH]cc(CCc3ccc(C(=O)N[C@@H](CCC(=O)O)C(=O)O)cc3)c2c(=O)[nH]1 [Pemetrexed] (partner 0.2 µM)
Procedure, shortened: as §1

Q: Which results are given for UMC-11?
A: relative viability (Wnt-C59 + Foretinib; first compound 0.001 µM): 1.04; relative viability (Wnt-C59 + Foretinib; first compound 0.01 µM): 1.01; relative viability (Wnt-C59 + Foretinib; first compound 0.03162 µM): 1.06; relative viability (Wnt-C59 + Foretinib; first compound 0.1 µM): 0.996; relative viability (Wnt-C59 + Alpelisib; first compound 0.001 µM): 1.08; relative viability (Wnt-C59 + Alpelisib; first compound 0.01 µM): 0.978; relative viability (Wnt-C59 + Alpelisib; first compound 0.03162 µM): 1.07; relative viability (Wnt-C59 + Alpelisib; first compound 0.1 µM): 1.01; relative viability (Wnt-C59 + Decitabine; first compound 0.001 µM): 0.572; relative viability (Wnt-C59 + Decitabine; first compound 0.01 µM): 0.607; relative viability (Wnt-C59 + Decitabine; first compound 0.03162 µM): 0.559; relative viability (Wnt-C59 + Decitabine; first compound 0.1 µM): 0.72; relative viability (Lapatinib + Pemetrexed; first compound 0.02 µM): 0.803; relative viability (Lapatinib + Pemetrexed; first compound 0.06325 µM): 0.7; relative viability (Lapatinib + Pemetrexed; first compound 0.2 µM): 0.781; relative viability (Lapatinib + Pemetrexed; first compound 0.6325 µM): 0.795; relative viability (Lapatinib + Pemetrexed; first compound 2 µM): 0.753
